Where two headings read alike, the source gives them in different places. Bounds are passed on as bounds.

The target in one assay is T1, BRD9 (Homo sapiens, UniProt Q9H8M2).
T1 construct: Western blot analysis of BRD9 and BRD7 levels after treatment of HeLa cells; endogenous in cells; host or cells: HeLa
T1 sequence (Q9H8M2 1-597): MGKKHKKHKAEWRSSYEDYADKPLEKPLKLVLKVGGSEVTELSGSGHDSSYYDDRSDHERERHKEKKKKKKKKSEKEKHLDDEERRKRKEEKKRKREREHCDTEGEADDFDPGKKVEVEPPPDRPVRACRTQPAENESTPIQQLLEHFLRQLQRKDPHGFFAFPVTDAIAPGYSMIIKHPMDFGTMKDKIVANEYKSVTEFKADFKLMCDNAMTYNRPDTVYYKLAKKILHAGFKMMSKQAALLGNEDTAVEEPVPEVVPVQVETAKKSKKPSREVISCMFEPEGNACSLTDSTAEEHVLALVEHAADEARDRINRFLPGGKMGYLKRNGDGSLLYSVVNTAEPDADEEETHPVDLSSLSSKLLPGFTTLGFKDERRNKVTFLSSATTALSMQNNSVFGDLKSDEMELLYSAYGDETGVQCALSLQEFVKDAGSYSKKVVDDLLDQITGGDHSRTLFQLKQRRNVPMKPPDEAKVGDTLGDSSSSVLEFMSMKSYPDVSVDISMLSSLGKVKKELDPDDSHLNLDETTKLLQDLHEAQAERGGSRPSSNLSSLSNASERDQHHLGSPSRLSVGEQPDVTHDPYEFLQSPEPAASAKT
The assay is described as follows: Western blot of BRD9 levels in HeLa cells after compound treatment. The following applies: 1 μM compound; for remaining activity at 1 µM: Table 2, % of total protein remaining relative to 0.1% DMSO vehicle, HeLa cell lysates; for BRD9 degradation: HeLa cells. Format: cell-based. A general note: A western blot detects proteins with antibodies after separation by electrophoresis.

Another assay has as its target T2, BRD7 (Homo sapiens, UniProt Q9NPI1).
T2 construct: Western blot analysis of BRD9 and BRD7 levels after treatment of HeLa cells; endogenous in cells; host or cells: HeLa
T2 sequence (Q9NPI1 1-651): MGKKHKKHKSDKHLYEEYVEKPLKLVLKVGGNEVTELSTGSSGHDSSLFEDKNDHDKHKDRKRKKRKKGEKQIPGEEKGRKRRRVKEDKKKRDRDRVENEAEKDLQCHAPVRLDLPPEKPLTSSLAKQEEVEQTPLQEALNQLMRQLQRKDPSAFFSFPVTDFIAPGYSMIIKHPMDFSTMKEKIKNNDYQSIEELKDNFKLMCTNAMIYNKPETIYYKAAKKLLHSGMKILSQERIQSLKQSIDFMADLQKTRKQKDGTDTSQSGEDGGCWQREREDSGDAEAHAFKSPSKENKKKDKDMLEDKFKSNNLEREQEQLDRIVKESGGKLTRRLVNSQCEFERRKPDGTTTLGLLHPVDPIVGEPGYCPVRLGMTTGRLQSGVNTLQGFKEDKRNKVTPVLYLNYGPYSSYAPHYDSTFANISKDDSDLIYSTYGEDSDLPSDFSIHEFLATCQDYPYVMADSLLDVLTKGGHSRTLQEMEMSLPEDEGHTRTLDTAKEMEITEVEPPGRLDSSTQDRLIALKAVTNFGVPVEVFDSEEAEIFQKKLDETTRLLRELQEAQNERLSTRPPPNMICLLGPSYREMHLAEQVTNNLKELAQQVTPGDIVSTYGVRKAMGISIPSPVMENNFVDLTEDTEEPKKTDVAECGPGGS
Description: Western blot of BRD7 levels in HeLa cells after compound treatment. It is filed as cell-based. The following applies: 1 μM compound; for remaining activity at 1 µM: Table 2, % of total protein remaining relative to 0.1% DMSO vehicle, HeLa cell lysates; for BRD7 degradation: HeLa cells. How it is done: HeLa and Hek293 cells were seeded at either 0.3 × 10^6 or 0.5 × 10^6 cells per well in 6-well plate in 2 mL of medium. At 80% confluency, cells were treated with compounds at the desired concentration, with final DMSO concentration of 0.1% v/v. Cells were incubated at 37 °C and 5% of CO2 for the desired time before harvesting. For protein extraction from adherent cells, cells were washed twice with DPBS (Gibco) and lysed with RIPA buffer (Sigma-Aldrich), supplemented with cOmplete Mini EDTA-free protease inhibitor cocktail (Roche). Insoluble material was removed by centrifugation at 14 000 rpm for 15 min at 4 °C. Supernatant was collected and protein concentration was quantified by Bradford assay (Thermo Scientific no. 23200, mean of two replicates). For RI-1 cells, (1–1.5) × 10^6 cells/mL were seeded in 6-well plate in 2 mL of medium. The day after, cells were treated with compounds at the desired concentration, with final DMSO concentration of 0.1% v/v. Before harvesting, cells were incubated at 37 °C and 5% CO2 for the desired time. Cells were washed twice with DPBS (Gibco) and lysed with RIPA buffer (Sigma-Aldrich), supplemented with cOmplete Mini EDTA-free protease inhibitor cocktail (Roche). Lysates were sonicated (10 s) and centrifuged at 14 000 rpm for 20 min at 4 °C. Supernatant was collected, and protein concentration was quantified by Bradford assay (mean of two replicates). For EOL-1 and A-204 cell line, 20 000 cells were seeded in 300 μL per well in a 24-well plate and incubated at 37 °C overnight. Compounds were added from DMSO stock solution using a digital dispenser D300 (Tecan), normalizing for added DMSO, and cells were incubated at 37 °C for 18 h. Medium was removed, and cells were washed with PBS and lysed in 80 μL of lysis buffer (1% Triton, 350 mM KCl, 10 mM Tris, pH 7,4, phosphatase-protease inhibitor cocktail (Thermo Scientific no. 1861281), 10 mM DTT, Benzonase 0.5 μL/ml (Novagen no. 70746 10KU, 25 U/μL)) for 30 min on ice before insoluble debris was pelleted by centrifugation.
Proteins were resolved by SDS–PAGE on NuPage 4–12% Bis-Tris Midi Gel (Invitrogen) and transferred to Amersham Protran 0.45 NC nitrocellulose membrane (GE Healthcare) using wet transfer. The membrane was blocked with 5% w/v milk in Tris-buffered saline (TBS) with 0.1% w/v Tween-20. The following primary antibodies at the given concentration were used: anti β-actin (Cell Signaling Technology, 4970S, 13E5) 1:2000, anti-Brd9 (Bethyl A303-781A) 1:1000, anti-Brd7 (Bethyl A302-304A) 1:1000, VHL rabbit Ab (Cell Signaling Technology, no. 68547S) 1:1000, anti-CRBN (Novus Bio, NBP 1-9-1810) 1:1000, anti-actin hFAB rhodamine antibody, Bio-Rad, no. 12004164. Following incubation with horseradish peroxidase-conjugated secondary antibody (Cell Signaling Technology) or IRDye secondary antibody (Licor), bands were developed using Amersham ECL Prime Western blotting detection kit on Amersham Hyperfilm ECL film (Amersham) or ChemiDoc imaging system (Bio-Rad). ImageJ software was used for band quantification, and the last was reported as relative amount as ratio of each protein band relative to the lane’s loading control. Then the values obtained were normalized to 0.1% DMSO vehicle control. Alternatively, protein levels were determined on a WES capillary electrophoresis instrument (Proteinsimple) using a BRD9 antibody (Bethyl A303-781A) and a GAPDH antibody (Abcam no. ab9485) for normalization. DC50 and half-lives were determined by assuming a linear model between the two data points across 50% protein level mark.

As to `COc1cc(-c2cn(C)c(=O)c3cnccc23)cc(OC)c1CN1CCN(CCOCCOCCOCCOCC(=O)N[C@H](C(=O)N2C[C@H](O)C[C@H]2C(=O)NCc2ccc(-c3scnc3C)cc2)C(C)(C)C)CC1` [Compound 6, (2S,4R)-1-((S)-2-(tert-Butyl)-17-(4-(2,6-dimethoxy-4-(2-methyl-1-oxo-1,2-dihydro-2,7-naphthyridin-4-yl)benzyl)piperazin-1-yl)-4-oxo-6,9,12,15-tetraoxa-3-azaheptadecanoyl)-4-hydroxy-N-(4-(4-methylthiazol-5-yl)benzyl)pyrrolidine-2-carboxamide], the remaining activity at 1 µM on BRD9 (4 h, read-out: BRD9 4 h (%)) worked out at 99%; on BRD7 (4 h, read-out: BRD7 4 h (%)) it was 102%; at BRD7 (16 h, read-out: BRD7 16 h (%)) it was 119%. For the same compound, the BRD9 degradation entry on BRD9 (4 h) is “at most 20%”; on BRD9 (16 h), at most 30%. For the same compound, the BRD7 degradation result on BRD7 (4 h) is reported as “at most 20%”; at BRD7 (16 h), at most 30%.

As to `COc1cc(-c2cn(C)c(=O)c3cnccc23)cc(OC)c1CN1CCN(CCOCCOCC(=O)NCCNc2cccc3c2C(=O)N(C2CCC(=O)NC2=O)C3=O)CC1` (stereo not drawn) [Compound 7, 2-(2-(2-(4-(2,6-Dimethoxy-4-(2-methyl-1-oxo-1,2-dihydro-2,7-naphthyridin-4-yl)benzyl)piperazin-1-yl)ethoxy)ethoxy)-N-(2-((2-(2,6-dioxopiperidin-3-yl)-1,3-dioxoisoindolin-4-yl)amino)ethyl)acetamide], the BRD9 degradation entry on BRD9 (4 h) is “strong degradation”. For the same compound, the BRD7 degradation result on BRD7 (4 h) was “no BRD7 degradation”.

On to `COc1cc(-c2cn(C)c(=O)c3cnccc23)cc(OC)c1CN1CCN(CCOCCOCCOCCOCC(=O)NCCNc2cccc3c2C(=O)N(C2CCC(=O)NC2=O)C3=O)CC1` (stereo not drawn) [Compound 8, 14-(4-(2,6-Dimethoxy-4-(2-methyl-1-oxo-1,2-dihydro-2,7-naphthyridin-4-yl)benzyl)piperazin-1-yl)-N-(2-((2-(2,6-dioxopiperidin-3-yl)-1,3-dioxoisoindolin-4-yl)amino)ethyl)-3,6,9,12-tetraoxatetradecanamide], for which, at BRD9 (4 h), the BRD9 degradation result is listed as “strong degradation”. The BRD7 degradation result at BRD7 (4 h) is recorded as “no BRD7 degradation”.

For the compound `COc1cc(-c2cn(C)c(=O)c3cnccc23)cc(OC)c1CN1CCN(C(=O)COCCOCCOCC(=O)N[C@H](C(=O)N2C[C@H](O)C[C@H]2C(=O)NCc2ccc(-c3scnc3C)cc2)C(C)(C)C)CC1` [Compound 25], the remaining activity at 1 µM on BRD9 (4 h, read-out: BRD9 4 h (%)) worked out at 74%; on BRD9 (16 h, read-out: BRD9 16 h (%)) it was 73%; on BRD7 (4 h, read-out: BRD7 4 h (%)), 95%; at BRD7 (16 h, read-out: BRD7 16 h (%)), 113%.

(Values after PMC6348446 (Journal of Medicinal Chemistry, 2018).)
